Test results published in publication PMC5410595, “In Vitro and In Silico Antidiabetic and Antimicrobial Evaluation of Constituents from Kickxia ramosissima (Nanorrhinum ramosissimum)” (Frontiers in Pharmacology, 2017).
≈ marks a conversion by molar mass, not a printed value. Where “and” joins values, the source holds several entries; their conditions need not be identical. Equal entries are not always repeated. Entries after “also recorded” stand apart in the source; their conditions may differ.

Tests used:
[1] = system: formation of AGEs (BSA-glucose); assay: BSA-glucose antiglycation assay; type: biochemical; settings: for IC50: read-out: Protein glycation BSA-Glucose IC50
Protocol: (§1) The BSA-glucose and BSA-MGO antiglycation assays were performed as reported before ([Amin et al., 2016]). The test protocol is attached as Supplementary Material ([Amin et al., 2016]).
28 Antiglycation assay (BSA-Glucose assay)
29 In the BSA-glucose assay the prevention of AGEs formation is investigated by determining the
30 fluorescence of the complex formed after incubation of a sugar (glucose) with protein (BSA) in
31 the presence or absence of test compounds. The antiglycation assay was performed according to
32 the method developed by Matsuura et al. (2002) with minor modifications. […]
37 DMSO. The mixtures were incubated at 60°C for 48 h. After incubation, the reaction mixture
38 was allowed to cool down at room temperature. Then 100 µL reaction mixture was transferred
39 to a new plastic tube (1.5 mL) and the reaction was stopped by adding 10 μL of 100% (w/v)
40 trichloroacetic acid (TCA) and to precipitate proteins. The TCA-added mixture was kept at 4°C
41 for 10 min, followed by centrifugation (14000 rpm, 4 °C, 4 min). The supernatant containing
42 unreacted D-glucose, test sample and interfering substances was discarded, whereas the
44 8.1 mM Na2HPO4, 2.68 mM KCl, 1.47 mM KH2PO4, […]). The change in fluorescence
46 of AGEs was monitored by spectrofluorometry (Tecan™ Infinite M200, Giessen, The
47 Netherlands). In order to eliminate interference by autofluorescence of the test compounds, a
48 parallel incubation of test substance with BSA at 60°C without D-glucose was performed for all
50 final concentration) were used as reference compounds.
51 The AGEs inhibition was calculated as
55 where F is the fluorescence intensity.
56 calculated using Sigma plot® 13.0.

[2] = system: formation of AGEs (BSA-MGO); assay: BSA-MGO antiglycation assay; type: biochemical
Protocol: as §1
60 Protein-glyoxal interaction (BSA-MGO assay)
61 The antiglycation assay using methylgloxyl (MGO) was performed according to the method
62 developed by Peng et al. (2007) with slight modifications. Briefly, methylglyoxal (135 μL, 5.75
63 mM) was incubated with BSA (135 μL, 10 mg/mL) dissolved in phosphate buffer (50 mM, pH
64 7.4, containing sodium azide (0.02%), added to prevent bacterial growth) and test compounds
65 (30 μL) at different final concentrations (1.5 – 0.023 mM) in 100% DMSO. The reaction
66 mixture was incubated at 37 °C for one week. Control solutions only contained methylglyoxal
67 (135 μL, 5.75 mM) BSA (135 μL, 1 0mg/mL) and DMSO (100%) only. The blank samples of
68 similar composition were also prepared simultaneously and kept at 4 °C for one week. The
70 440) due to formation of AGEs was monitored by spectrofluorometry (Tecan® Infinite M200,
71 Giessen, The Netherlands). Aminoguanidine (3-0.046 mM final concentration) was used as
72 reference compound. The AGEs inhibition was calculated as
74 % AGEs inhibition = [1–(S–Sb)/(C–Cb)] x 100
76 where S and C were fluorescence of test samples (in DMSO) and control (test mixtures
77 containing only DMSO) incubated at 37 °C, and where Sb and Cb were fluorescence for
78 samples incubated at 4 °C.
79 using Sigma plot® 13.0.

[3] = molecular target: T1, α-glucosidase from Saccharomyces cerevisiae (Saccharomyces cerevisiae, UniProt P53341); assay: α-glucosidase inhibition assay; type: biochemical; design: inhibition: dose or concentration left out as unconfirmed; settings: read-out: α-glucosidase % inhibition
T1 construct: purchased Sigma-Aldrich
T1 sequence (P53341 whole entry): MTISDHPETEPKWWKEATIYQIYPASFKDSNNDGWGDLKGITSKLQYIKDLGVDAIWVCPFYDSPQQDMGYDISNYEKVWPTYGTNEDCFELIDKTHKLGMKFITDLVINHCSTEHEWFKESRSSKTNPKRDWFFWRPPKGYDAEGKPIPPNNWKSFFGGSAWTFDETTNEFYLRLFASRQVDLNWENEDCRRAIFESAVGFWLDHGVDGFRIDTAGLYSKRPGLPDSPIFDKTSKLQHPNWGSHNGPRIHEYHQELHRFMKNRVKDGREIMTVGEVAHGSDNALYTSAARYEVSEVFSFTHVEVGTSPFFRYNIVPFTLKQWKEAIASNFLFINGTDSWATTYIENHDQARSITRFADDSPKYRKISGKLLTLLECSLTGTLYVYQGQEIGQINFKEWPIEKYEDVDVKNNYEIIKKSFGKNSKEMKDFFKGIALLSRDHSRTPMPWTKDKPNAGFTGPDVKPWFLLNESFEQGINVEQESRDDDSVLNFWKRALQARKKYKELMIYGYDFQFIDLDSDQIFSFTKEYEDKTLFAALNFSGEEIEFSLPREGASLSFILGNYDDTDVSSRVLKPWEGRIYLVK
Protocol: The α-glucosidase assay was carried out according as reported before ([Amin et al., 2016]). The test protocol is attached as Supplementary Material ([Amin et al., 2016]).
81 Inhibition of α-glucosidase.
82 α-Glucosidase inhibitory activity was assayed according to method adopted by Choudhary et al.
83 (2010) with some modifications. Briefly, 50 µL of a solution of α-glucosidase from
84 Saccharomyces cerevisiae (0.2 U/mL in 0.1 M phosphate buffer at pH 6.8, Sigma-Aldrich, St.
85 Louis, MO, USA) was incubated with 20 μL of test compounds or extracts at different
86 concentrations (ranging from 6 mM – 0.372 mM in 25% DMSO for isolated constituents or
87 from 5 mg to 0.039 mg/mL for extracts) at 37 °C for 10 min. Then 50 μl of the substrate,
88 p-nitrophenyl-α-D-glucopyranoside (0.7 mM stock, final concentration 0.29 mM) was added to
89 the reaction mixture and incubated again for 30 min at 37 °C. […]
91 from 834 µg to 6.5 µg/mL for extracts. The reaction was stopped by adding Na2CO3 (100 μl,
92 200 mM stock) solution and the absorbance was measured at 400 nm. Final DMSO
93 concentration remained below 7.5% during the assay.
94 concentration) was used as reference compound.
96 The % inhibition was calculated using the following formula:
98 % Inhibition = 100 – [OD (test sample) / OD (control)] × 100
100 Alpha-glucosidase inhibition was categorized as mild (1-25%), moderate (26-50%), high

15-LOX from soybean = molecular target: T2, 15-LOX from soybean (Glycine max, UniProt P08170); assay: 15-lipoxygenase inhibition assay; type: biochemical; settings: at the highest test concentration
T2 sequence (P08170 1-839): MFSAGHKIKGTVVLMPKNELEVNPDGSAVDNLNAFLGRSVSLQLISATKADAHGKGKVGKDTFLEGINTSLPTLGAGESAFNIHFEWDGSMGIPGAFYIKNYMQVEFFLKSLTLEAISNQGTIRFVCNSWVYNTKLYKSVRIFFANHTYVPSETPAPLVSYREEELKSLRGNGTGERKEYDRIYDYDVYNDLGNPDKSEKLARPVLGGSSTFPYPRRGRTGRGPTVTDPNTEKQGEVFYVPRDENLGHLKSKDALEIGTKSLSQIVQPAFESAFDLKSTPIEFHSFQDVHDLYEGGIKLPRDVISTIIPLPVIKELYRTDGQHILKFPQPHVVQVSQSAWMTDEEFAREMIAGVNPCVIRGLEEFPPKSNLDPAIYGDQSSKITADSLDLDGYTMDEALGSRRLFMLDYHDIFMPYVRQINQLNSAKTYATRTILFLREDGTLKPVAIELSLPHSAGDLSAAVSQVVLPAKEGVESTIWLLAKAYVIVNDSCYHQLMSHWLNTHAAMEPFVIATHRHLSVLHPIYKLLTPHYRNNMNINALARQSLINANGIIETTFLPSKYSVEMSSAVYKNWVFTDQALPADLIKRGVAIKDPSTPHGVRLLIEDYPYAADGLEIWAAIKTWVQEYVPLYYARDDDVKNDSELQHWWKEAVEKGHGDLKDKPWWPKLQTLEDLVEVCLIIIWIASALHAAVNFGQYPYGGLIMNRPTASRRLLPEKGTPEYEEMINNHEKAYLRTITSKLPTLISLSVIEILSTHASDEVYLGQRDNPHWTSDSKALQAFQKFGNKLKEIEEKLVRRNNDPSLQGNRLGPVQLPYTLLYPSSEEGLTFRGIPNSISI
Protocol: The soybean LOX assay is used as an indication of anti-inflammatory activity ([Muller, 1994]), and therefore during the present investigation, 15-LOX from soybean was used for peroxidation of linoleic acid, and inhibition was measured as described previously with slight modifications ([Malterud and Rydland, 2000]). Briefly, 12.5 μL (2–0.062 mM) of sample was dissolved in DMSO, and added to 487.5 μL of enzyme solution (200 U/mL). The mixture was incubated at room temperature for 5 min. Absorbance was recorded immediately after the addition of 500 μL of substrate (250 μM linoleic acid in 0.2 M borate buffer, pH 9) every minute up to 5 min at 234 nm.
% inhibition of enzyme activity was calculated as,
%inhibition of enzyme activity=([ΔA1/Δt]−[ΔA2/Δt])/(ΔA1/Δt)×100
where ΔA1/Δt and ΔA2/Δt are the increase rate in absorbance at 234 nm for sample without test substance and with test substance, respectively.

[4] = system: AAPH induced linoleic acid peroxidation; assay: Inhibition of linoleic acid lipid peroxidation, AAPH assay; type: biochemical; settings: slope of inhibition time (Tinh) vs. concentration of antioxidant
Protocol: The inhibition of linoleic acid lipid peroxidation was studied according to [Liegeois et al. (2000)] and [Rajic et al. (2010)]. Briefly, 10 μL of a 16 mM linoleic acid dispersion and 10 μL of the test compound (8-1 μM final concentration) were added to the UV cuvette containing 0.93 mL of 0.05 M phosphate buffer, pH 7.4. The oxidation reaction was initiated under air by the addition of 50 μL (40 mM) of AAPH solution. The rate of oxidation at 37°C was monitored by recording the increase of absorption at 234 nm caused by conjugated diene hydroperoxides. The results were compared to the standard inhibitor (Trolox). The AOP is defined as the slope of the curve representing the inhibition time of oxidation (Tinh) vs. the concentration of antioxidant and is expressed in min/μM.

[5] = system: Trypanosoma cruzi, Tulahuen LacZ, clone C4; assay: Antimicrobial screening panel: Trypanosoma cruzi; type: cell-based
Protocol: (§2) Fractions and isolated compounds were evaluated for antimicrobial activity in an integrated screening panel, also including the human MRC-5 cell line to assess selectivity, as reported before ([Cos et al., 2006]; [Mesia et al., 2008]; [Baldé et al., 2010]; [Amin et al., 2016]).

Escherichia coli = assay: Antimicrobial screening panel: Escherichia coli; type: cell-based
Protocol: as §2

[6] = system: Leishmania infantum, MHOM/MA/67/ITMAP263; assay: Antimicrobial screening panel: Leishmania infantum; type: cell-based
Protocol: as §2

[7] = system: Trypanosoma brucei, Squib 427; assay: Antimicrobial screening panel: Trypanosoma brucei; type: cell-based
Protocol: as §2

[8] = system: Microsporum canis, B68128 Janssen strain; assay: Antimicrobial screening panel: Microsporum canis; type: cell-based
Protocol: as §2

`N=C(N)NN` [Aminoguanidine, reference compound] was tested, and the “IC50, BSA-glucose assay” value ([1]; fractions and positive control) was 199 µg/mL (≈ 2690 µM), the IC50 [1] was 1750 µM and the IC50 ([2]; read-out: Protein glycation BSA-MGO IC50) was 150 µM.

With `CC1(O)C(Cl)C(O)C2(O)C=COC(OC3OC(CO)C(O)C(O)C3O)C12` (centres unmarked) [Compound 4, Linarioside] the “Protein glycation BSA-Glucose % inhibition” value ([1]; isolated constituents, at the highest test concentration of 3 mM) was “did not present any activity; also recorded: no activity”, the “Protein glycation BSA-MGO % inhibition” value ([2]; isolated constituents, highest test concentration) was 9% and the inhibition [3] was 29%. The “15-LOX assay % inhibition” value (15-LOX from soybean) was 8%.

`O=c1c(O)c(-c2ccc(O)c(O)c2)oc2cc(O)cc(O)c12` [Quercetin, reference compound] showed an IC50 [1] of 230 µM.

For `Cc1c(C)c2c(c(C)c1O)CCC(C)(C(=O)O)O2` (centres unmarked) [Trolox, reference compound], the “AAPH assay AOP (antioxidant power)” value [4] was 14.12 min/μM and 14.12^c min/μM.

`O=C(Cn1ccnc1[N+](=O)[O-])NCc1ccccc1` [benznidazol, reference compound] was tested, and the IC50 [5] was 2.13 µM.

`O=C(N[C@H](CO)[C@H](O)c1ccc([N+](=O)[O-])cc1)C(Cl)Cl` [chloramphenicol] gave an IC50 (Escherichia coli) of 2.42 µM.

`CCCCCCCCCCCCCCCCOP(=O)([O-])OCC[N+](C)(C)C` [miltefosine] was tested, and the IC50 [6] was 9.02 µM.

Work on `Cc1ccc(C(=O)Nc2ccc(S(=O)(=O)O)c3cc(S(=O)(=O)O)cc(S(=O)(=O)O)c23)cc1NC(=O)c1cccc(NC(=O)Nc2cccc(C(=O)Nc3cc(C(=O)Nc4ccc(S(=O)(=O)O)c5cc(S(=O)(=O)O)cc(S(=O)(=O)O)c45)ccc3C)c2)c1` [suramine] yielded an IC50 [7] of 0.03 µM.

For `CN(C/C=C/C#CC(C)(C)C)Cc1cccc2ccccc12` [terbinafin], the IC50 [8] was 1.38 µM.
